In patent US7951359B2, “Compositions and methods for therapy or prevention of chemotherapy-induced neuropathy” (Merck Serono SA, priority 2004, dated 2011):
Read-outs that look alike come from different tables or passages of the source.

What was measured:
[1] = system: cisplatin induced neuropathy; assay type: in vivo, rat
Procedure: Electrophysiological monitoring in cisplatin-induced neuropathy model was carried out as described in Example 17. The objective was to assess the effect of co-administration with IL-6 in cisplatin-induced loss of fiber/nerve function.
(§1) Electrophysiological recordings were performed using a Neuromatic 2000M electromyograph (EMG) (Dantec, Les Ulis, France). Rats were anaesthetized by IP injection of 60 mg/kg ketamine chlorhydrate (Imalgene 500®, Rhône Merieux, Lyon, France). The normal body temperature was maintained around […] with a heating lamp and verified using a contact thermometer (Quick, Bioblock Scientific, Illkirch, France) placed on the tail surface.
(§2) Compound muscle action potential (CMAP) of M wave signal (or electrically evoked muscle potential) was recorded in the gastrocnemius muscle after stimulation of the sciatic nerve. M wave reflects the current developed during the action potential of muscle fibers. A reference electrode and an active needle were placed in the hind paw. A ground needle was inserted on the lower back of the rat. Sciatic nerve was stimulated with a single 0.2 ms pulse at supramaximal intensity. The […] of the motor wave was recorded and expressed in ms.
(§3) Sensitive nerve conduction velocity (SNCV) was also recorded. The tail skin electrodes were placed as follows: a reference needle inserted at the base of the tail and an anode needle placed 30 mm away from the reference needle toward the extremity of the tail. A ground needle electrode was inserted between the anode and reference needles. The caudal nerve was stimulated with a series of 20 pulses (for 0.2 ms) at an intensity of 12.8 mA. The velocity was expressed in m/s.
(§4) H-wave reflex was recorded in the hind footpad muscle after stimulation of the sciatic nerve. A reference electrode and a ground needle were placed on the lower back of the rat. The sciatic nerve was stimulated with a single 0.2 ms pulse at supramaximal intensity. The amplitude (mV) of H wave and the proportion of animal lacking H wave response were the parameters studied.

[2] = system: cisplatin induced neuropathy; assay type: in vivo, rat; remark: listed apart in the source
Procedure: The drug was diluted in 0.9% sterile aqueous solution of sodium chloride.
4-MC was diluted in 0.9% sterile aqueous solution of sodium chloride and injected daily via IP route from day 23 to the end of the experiment.
Electrophysiological tests described in Example 17, were carried out in parallel to the behavioral tests (described in the preceding example) in cisplatin-established neuropathy model. The objective was to assess the therapeutic effect of IL-6 in cisplatin-induced loss of fiber/nerve function.
as §1, §3, §4

[3] = system: vincristine induced neuropathy; test: Hot plate test in vincristine-treated rats; assay type: in vivo, rat
Procedure: The rat was placed inside a glass cylinder of 17 cm height and 21 cm diameter on a heating-plate maintained at 52° C. (Medite OTS 40, Microm, Francheville, Rhône, France). The animal behavior was observed, particularly the licking of a foot and the adjusted leap. The latency before licking a foot or before jumping to escape the heat (adjusted leap) was recorded. The time needed to feel the thermal pain is related to the thermal sensitivity and tends to increase when thermal sensitivity is altered.

[4] = system: vincristine induced neuropathy; test: Hindpaw skin biopsy, density of dermal nerve fibers in vincristine-treated rats; assay type: in vivo, rat; conditions: IL-6 10 μg/kg
Procedure: A 5-10 mm diameter area of skin was punch-biopsied from the hindpaw. Skin samples were immediately fixed overnight in paraformaldehyde at 4° C., incubated (overnight) in 30% sucrose in 0.1 M PBS for cryoprotection, embedded in OCT and frozen at −80° C. until cryocut. 50 μm-thick cryosections were then cut vertical to the skin surface with a cryostat. Free-floating sections were incubated for 7 days in a bath of rabbit anti-protein gene product 9.5 (1:10000; Ultraclone, Isle of Man, UK) at 4° C. The sections were then processed to reveal immunoreactivity according to the ABC peroxidase method. Briefly, they were incubated in for 1 hr with biotinylated anti-goat antibody (1:200), then 30 min in the avidin biotinylated complex at room temperature. Peroxidase activity was visualized using DAB system. Sections were then counterstained with eosin or hematoxylin. Sections were dehydrated, cleared with bioclear and mounted on eukitt. The number of dermal nerves of 3 microscope fields was counted manually under 40 magnification view.

[5] = system: vincristine induced neuropathy; test: Morphometric analysis of sciatic nerve in vincristine-treated rats; assay type: in vivo, rat
Procedure: Histomorphometric analyses were carried out as described in Example 18 at the completion of the experiments, to explore morphologic changes occurring in fiber and axon diameter and myelin thickness in rats treated with vincristine and in rats co-administrated with IL-6.
With vincristine, morphometric analysis was performed 2 week after the end of vincristine administration on 3 animals per group. The animals were anesthetized by IP injection of 100 mg/kg Imalgène 500®. A 5 mm segment of sciatic nerve was excised, fixed overnight with 4% glutaraldehyde (Sigma, L'Isle d'Abeau-Chesnes, France) in phosphate buffered saline (PBS) (pH=7.4) and maintained in 30% sucrose and stored at 4° C. until further processing. At the time of use, the nerve sample was post-fixed in 1% osmium tetroxide (Sigma, L'Isle d'Abeau-Chesnes, France) in PBS for 2 h, dehydrated in serial alcohol solution, and embedded in Epon. Embedded tissues were then placed at 70° C. during 3 days to allow polymerization of the tissue wax. Cross sections of 1.5 μm thick were performed and they were stained with a 1% toluidine blue solution (Sigma, L'Isle d'Abeau-Chesnes, France) for 2 min, dehydrated and mounted on Eukitt. Twelve sections per sample were examined using an optical microscope (Nikon, Tokyo, Japan) and analyzed using, a semi-automated digital image analysis software (Biocom, France). The fiber diameter (a), axon diameter (b), and myelin thickness (c) were measured as illustrated below.

[6] = system: vincristine induced neuropathy; test: Walking test (motor coordination) in vincristine-treated rats; assay type: in vivo, rat; conditions: IL-6 0.3, 1, 3, 10 μg/kg SC daily; 2 and 3 weeks
Procedure: The motor coordination was assessed using walking test, which consists at measuring the time taken by a rat placed at one extremity of a 100 cm-long horizontal wooden rod of 5.5 cm diameter, 40 cm above the table, to cover a distance of 1 m on this rod. Three tests (maximum duration: 60 s each) were performed, and the mean value was calculated and retained as characteristic value. If the animal fell down, it was scored with a maximum of 60 s.

[7] = system: Hybridoma growth factor (HGF) activity; test: Hybridoma growth factor (HGF) activity of IL-6; assay type: cell-based; conditions: based on Hybridoma growth factor (HGF) activity
From the text: Recombinant human IL-6 (r-hlL-6) is produced in genetically engineered Chinese Hamster Ovary (CHO) cells. The production process begins with the growth and expansion of cells from a working cell bank (WCB) and continues under conditions where r-hlL-6 is secreted into the culture medium. The r-hlL-6 was harvested and purified from culture medium of the engineered cells.

[8] = system: vincristine induced neuropathy; test: Electromyography (EMG) in vincristine-treated rats; assay type: in vivo, rat
Procedure: In parallel to behavioral tests, electrophysiological test as described in Example 17, were carried out to evaluate fiber/nerve function in vincristine-administered rats vis-à-vis rats co-administrated with IL-6.
as §1, §2, §3, §4

[9] = monkeys; cited from earlier work
[10] = patients with myelodysplastic syndromes and trombocytopenia; cited from earlier work
[11] = rodents; cited from earlier work

N.N.[Cl][Pt][Cl] [cisplatin, Cis-dichlorodiamine platinum]
SNCV versus non-treated control ([1]; rat, in vivo): significantly slow | reduction of H wave amplitude ([1]; rat, in vivo): about 80% | SNCV versus untreated control ([2]; rat, in vivo): significantly slower | loss in H wave signal amplitude ([2]; rat, in vivo): about 70%

IL-6: Recombinant human IL-6 produced in genetically engineered Chinese Hamster Ovary (CHO) cells
prevention of vincristine-induced nociception loss (hot plate) ([3]; IL-6 0.3, 1, 3, 10 μg/kg SC daily, 5 weeks): significantly prevented nociception | protection from vincristine-induced nociception loss compared with 4-MC ([3]; IL-6 0.3-10 μg/kg SC vs 4-MC 10 μg/kg IP): confers better protection that 4-MC | dermal fiber loss by vincristine [4]: fully prevented | decrease in axon diameter by vincristine ([5]; IL-6 0.3-10 μg/kg SC daily): significantly reduced/prevented the decrease in axon diameter | percentage of degenerated fibers in vincristine treated rats ([5]; IL-6 0.3-10 μg/kg SC daily): decreased the percentage of degenerated fibers | vincristine-induced fiber shrinkage ([5]; IL-6 1-10 μg/kg SC daily): prevented vincristine-induced fiber shrinkage | vincristine-induced myelin loss ([5]; IL-6 1-10 μg/kg SC daily): reduced/prevented vincristine-induced myelin loss | walking test, time to traverse the rod versus vincristine alone [6]: traversed the rod faster | potency [7]: 23.3×10^6 IU/ml | CMAP latency time ([8]; IL-6 10 μg/kg SC daily with vincristine): fully preserved their CMAP latency time | vincristine-induced CMAP latency ([8]; IL-6 0.3-10 μg/kg SC daily, p<0.05): reduced | SNCV in vincristine treated animals ([8]; IL-6 1-10 μg/kg SC daily): full restoration of SNCV | H wave amplitude preservation ([8]; IL-6 1-10 μg/kg SC daily with vincristine): fully preserved the H wave amplitude | protection against loss of M wave amplitude, duration ([8]; IL-6 3-10 μg/kg SC daily with vincristine): stable throughout the experiment | prevention of vincristine-induced loss of M wave amplitude ([8]; IL-6 all doses tested (0.3-10 μg/kg SC daily)): prevent vincristine-induced loss of M wave amplitude | protection against vincristine-induced fiber/nerve function loss compared with 4-MC ([8]; IL-6 vs 4-MC 10 μg/kg IP): confers better protection that 4-MC | loss of H wave amplitude by cisplatin ([1]; IL-6 10 μg/kg SC daily, throughout the experiment): fully prevented the loss of H wave amplitude | loss of H wave amplitude by cisplatin ([1]; IL-6 0.3, 1, 3, 10 μg/kg SC daily): reduce/prevent the loss of H wave amplitude | SNCV in cisplatin treated rats ([1]; IL-6, especially at 3 and 10 μg/kg, after 5 weeks): improve SNCV | prevention of cisplatin-induced loss of fiber/nerve function compared with 4-MC ([1]; IL-6 vs 4-MC 10 μg/kg IP): more effective in preventing cisplatin-induced loss of fiber/nerve function than 4-MC | active dose as thrombopoietic factor [9]: 0.01 mg/kg | maximum dose tolerated [10]: 3.75 µg/kg/day | SNCV in cisplatin-treated animals ([2]; IL-6 3 μg/kg, after 1 week of treatment, p≦0.01): improved the SNCV | loss of H wave amplitude ([2]; IL-6 3 and 10 μg/kg SC daily from day 23, p≦0.05): reversed the loss of H wave amplitude | H wave amplitude loss recovered ([2]; IL-6, 1 week after initiation of treatment): about 50% | H wave amplitude recovery ([2]; IL-6, 2 weeks of treatment): full recovery | curing/ameliorating loss of fiber/nerve function compared with 4-MC ([2]; IL-6 vs 4-MC): more efficient than 4-MC | active dose as thrombopoietic factor [11]: above 500 μg/kg
